From US11219221B2 (FarmHannong Co., Ltd., priority 2017, dated 2022)

Columns and labels:
Format in all cases: biochemical
[1] = target: Spirulina subsalsa PPO CyPPO16 (SEQ ID NO: 1) variant A162L (MBP fusion); assay: PPO enzyme inhibition (IC50), MBP-fused PPO; conditions: 50 μM protoporphyrinogen IX, pH 8.0, room temperature, 30 min
Description: (§1) Thus, PPO proteins of wild type and variants were expressed as fused to MBP and were used for experiments.
(§2) The following process for purification of PPO protein was performed in a 4° C. cold room. Amylose resin (NEB) was packed to 1.5×15 cm column (Bio-Rad, Econo Columns 1.5×15 cm, glass chromatography column, max. vol), and the obtained protein extracts were loaded to the column at a flow rate of 0.2 ml/min. The column was washed with 3 column volumes of buffer and the presence of protein in the washing solution was examined. When the protein was no longer detected, the washing procedure was terminated. Then, the MBP-PPO protein was eluted with approximately 2 column volumes of buffer containing 20 mM maltose. The protein concentration of each eluent was determined and the elution was stopped when the protein was no longer detected. Ten microliter of each fraction was investigated for protein quantification and SDS-PAGE analysis. The highly pure fractions of PPO protein variants were used for the enzyme assay.
(§3) Since protoporphyrinogen IX, a substrate of PPO protein, was not commercially available, it was chemically synthesized in the laboratory. Overall process was performed in dark under nitrogen stream. […] of protoporphyrin IX was dissolved in 20 ml of 20% (v/v) EtOH, and stirred under dark condition for 30 minutes. The obtained protoporphyrin IX solution was put into a 15 ml screw tube in an amount of 800 μl, and flushed with nitrogen gas for 5 minutes. To this, 1.5 g of sodium amalgam was added and vigorously shaken for 2 minutes. The lid was opened to exhaust hydrogen gas in the tube. Thereafter, the lid was closed and incubated for 3 minutes. The protoporphyrinogen IX solution was filtered using syringe and cellulose membrane filter. […] To determine the enzyme activity of PPO protein, a reaction mixture was prepared with the following composition (based on 10 ml): 50 mM Tris-Cl (pH 8.0); 50 mM NaCl; 0.04% (v/v) Tween 20; 40 mM glucose (0.072 g); 5 units glucose oxidase (16.6 mg); and 10 units catalase (1 μl).
(§4) Hundred and eighty microliters of a reaction mixture containing the purified PPO protein were placed in 96 well plates and 20 μl of […] were added. […] The reaction proceeded at room temperature for 30 min and the fluorescence of protoporphyrin IX was measured using Microplate reader (Sense, Hidex) (excitation: 405 nm; emission: 633 nm). […] To this, 2.7 N HCl was added, and the absorbance at 408 nm was measured. A standard curve was generated using standard protoporphyrin IX, and PPO activity was measured by calibration of protoporphyrin IX using the standard curve of protoporphyrin IX.

[2] = target: Spirulina subsalsa PPO CyPPO16 (SEQ ID NO: 1) variant L327T (MBP fusion); assay: PPO enzyme inhibition (IC50), MBP-fused PPO; conditions: 50 μM protoporphyrinogen IX, pH 8.0, room temperature, 30 min
Description: as §1, §2, §3, §4

[3] = target: Spirulina subsalsa PPO CyPPO16 (SEQ ID NO: 1) variant R85A (MBP fusion); assay: PPO enzyme inhibition (IC50), MBP-fused PPO; conditions: 50 μM protoporphyrinogen IX, pH 8.0, room temperature, 30 min
Description: as §1, §2, §3, §4

[4] = target: Spirulina subsalsa PPO CyPPO16 (SEQ ID NO: 1) variant V160C (MBP fusion); assay: PPO enzyme inhibition (IC50), MBP-fused PPO; conditions: 50 μM protoporphyrinogen IX, pH 8.0, room temperature, 30 min
Description: as §1, §2, §3, §4

[5] = target: Spirulina subsalsa PPO CyPPO16 (SEQ ID NO: 1) variant V305M (MBP fusion); assay: PPO enzyme inhibition (IC50), MBP-fused PPO; conditions: 50 μM protoporphyrinogen IX, pH 8.0, room temperature, 30 min
Description: as §1, §2, §3, §4

[6] = target: Spirulina subsalsa PPO CyPPO16, wild type, SEQ ID NO: 1 (MBP fusion); assay: PPO enzyme inhibition (IC50), MBP-fused PPO; conditions: 50 μM protoporphyrinogen IX, pH 8.0, room temperature, 30 min
Description: as §1, §2, §3, §4

[7] = tested on: Spirulina subsalsa PPO CyPPO16, wild type, SEQ ID NO: 1; assay: PPO enzyme kinetics (Vmax); conditions: substrate protoporphyrinogen IX
Description: as §1
as §3, with “Overall” for “Since protoporphyrinogen IX, a substrate of PPO protein, was not commercially available, it was chemically synthesized in the laboratory. Overall”, “minutes.” for “minutes. The protoporphyrinogen IX solution was filtered using syringe and cellulose membrane filter.”
as §4
(§5) Meanwhile, the maximal velocity (Vmax) values of each enzyme were determined in order to evaluate the kinetic characteristics of CyPPO16 and CyPPO17. The initial reaction velocity was measured where the reaction velocity was proportional to concentration by varying the substrate concentration. The amount of produced protoporphyrin IX, the enzyme reaction product, was measured by time course at room temperature for 20 minutes. Vmax values were calculated with the enzyme kinetics analysis program by Michaelis-Menten equation.

[8] = tested on: Thermosynechococcus sp. NK55a PPO CyPPO17, wild type, SEQ ID NO: 3; assay: PPO enzyme kinetics (Vmax); conditions: substrate protoporphyrinogen IX
Description: as §1
as §3, with “Overall” for “Since protoporphyrinogen IX, a substrate of PPO protein, was not commercially available, it was chemically synthesized in the laboratory. Overall”, “minutes.” for “minutes. The protoporphyrinogen IX solution was filtered using syringe and cellulose membrane filter.”
as §4, §5

[9] = room temperature, 20 min time course, Michaelis-Menten

Structure (SMILES)	IC50 [1]	IC50 [2]	IC50 [3]	IC50 [4]	IC50 [5]	IC50 [6]	Vmax compared with AtPPO1 [7]	Vmax [7, 9]	Vmax compared with AtPPO1 [8]	Vmax [8, 9]
C#CCN1C(=O)COc2cc(F)c(N3C(=O)C4=C(CCCC4)C3=O)cc21 [flumioxazin]	0.578 µM	0.78 µM	0.059 µM	0.057 µM	0.038 µM	0.014 µM	–	–	–	–
C=Cc1c2[nH]c(c1C)Cc1[nH]c(c(CCC(=O)O)c1C)Cc1[nH]c(c(C)c1CCC(=O)O)Cc1[nH]c(c(C)c1C=C)C2 [protoporphyrinogen IX]	–	–	–	–	–	–	more than two times higher	336 nmole mg protein^−1 min^−1	more than two times higher	378 nmole mg protein^−1 min^−1
